# Earlier results as cited in patent US20110020480A1, “USE OF BENZOXAZINOIDS-CONTAINING CEREAL GRAIN PRODUCTS FOR HEALTH-IMPROVING PURPOSES” (priority 2008, published 2011).
# Experiments:
# [1] = daily dose
smiles,measurement,setting,value
"COc1ccc2[nH]c(=O)oc2c1 [6-MBOA, 6-methoxy-benzoxazolin-2-one]",effect on depression or mood,human males,significant positive effect
same,therapeutic dose for treating depressive states of mind,[1],approx. 15 mg daily
same,cumulative daily dose for obtaining appetite suppression,overweight women,15 µg
